Assay results reported in US10835466B2, “Wrinkle ameliorating agent” (POLA CHEMICAL INDUSTRIES, INC., priority 2016, dated 2020).
Structures can show the parent of a compound that is named as a salt.

Test system: wrinkles of the outer corners of the eyes
Assay: Test of wrinkle improvement effect (skin replica shadow image analysis after 8 weeks of application)
Format: in vivo, women
Conditions: for Wrinkle improvement Improvement rate (%): applied to outer corners of the eyes twice a day for 8 weeks; for Wrinkle improvement Evaluation: twice a day for 8 weeks, class of the improvement rate
Experimental: The cosmetics (Examples 1-7, Comparative Example, and Reference Examples) according to Table 1 were prepared respectively in a conventional manner. With regard to each of the prepared cosmetics, the wrinkle improvement effect was evaluated by the following method. In other words, 45 women (40 to 60 years old) who were concerned about wrinkles of the outer corners of the eyes were divided into 9 groups of 5 persons. To each group, any one of the cosmetics of Examples 1 to 7, Comparative Example, and Reference Examples was handed over, which was applied by them to the outer corners of the eyes twice a day in the morning and evening continuously for 8 weeks. Before and after the test, an impression of the skin surface profile was taken in a conventional manner to produce the respective replicas. As the base material for the replica, that for a white replica not transmitting light was used. […] The distribution of brightness in the shadow image was determined, and the brightness equal to or higher than the median value of the brightness was transformed to the maximum brightness, and the brightness below the median value was transformed to the brightness 0 so that binarization is performed according to the borderline of the median value of the brightness. Then the area rate of the shadow portion (portion with the brightness 0) was measured and the wrinkle improvement rate was calculated based on the following expression. Wrinkle improvement rate (%)=(Area rate of shadow portion before test−Area rate of shadow portion after test)/(Area rate of shadow portion before test)×100

[1] = cosmetic of Table 1 with 0.01% by mass compound (Examples 3 and 5), average of group of 5 women
[2] = cosmetic of Table 1 with 0.01% by mass compound (Examples 3 and 5)
[3] = cosmetic of Table 1 with 1% by mass compound, average of group of 5 women (40 to 60 years old)
[4] = cosmetic of Table 1 with 1% by mass compound

Row | SMILES | Wrinkle improvement Improvement rate (%) [1] [%] | Wrinkle improvement Evaluation [2] | Wrinkle improvement Improvement rate (%) [3] [%] | Wrinkle improvement Evaluation [4]
1 | NCC1CCC(C(=O)c2ccc(CCC(=O)O)cc2)CC1 (centres unmarked) [Compound 1, 3-[p-(4-aminomethylcyclohexylcarbonyl)phenyl]propionic acid] | 6.3 | A (5% or more and less than 10%) | 12 | AA (The improvement rate is 10% or more)
2 | CCCCCCOC(=O)CCc1ccc(C(=O)C2CCC(CN)CC2)cc1 (centres unmarked) [Compound 2, hexyl 3-[p-(4-aminomethylcyclohexylcarbonyl)phenyl]propionate] |  |  | 8.2 | A (5% or more and less than 10%)
3 | NCC1CCC(C(=O)c2ccc(CCCO)cc2)CC1 (centres unmarked) [Compound 3, 3-[p-(4-aminomethylcyclohexylcarbonyl)phenyl]propanol] | 5.6 | A (5% or more and less than 10%) | 9.3 | A (5% or more and less than 10%)
4 | CCCCCC(=O)OCCCc1ccc(C(=O)C2CCC(CN)CC2)cc1 (centres unmarked) [Compound 4, 3-[p-(4-aminomethylcyclohexylcarbonyl)phenyl]propyl hexanoate] |  |  | 8.3 | A (5% or more and less than 10%)
5 | CCCCCC(=O)OCC(C)Cc1ccc(C(=O)C2CCC(CN)CC2)cc1 (centres unmarked) [Compound 5, 2-methyl-3-[p-(4-aminomethylcyclohexylcarbonyl)phenyl]propyl hexanoate] |  |  | 6.5 | A (5% or more and less than 10%)
6 | NCC1CCC(C(=O)c2ccc(CCC(=O)O)cc2)CC1 (centres unmarked) [Hydrochloride salt of Compound 1, 3-[p-(4-aminomethylcyclohexylcarbonyl)phenyl]propionic acid] |  |  | 12.2 | AA (The improvement rate is 10% or more)
7 | CNC(=O)[C@H]1CC[C@H](CN)CC1.Cl [Tranexamic acid methylamide hydrochloride, reference compound] |  |  | 3.6 | B (less than 5%)
8 | NC[C@H]1CC[C@H](C(=O)O)CC1 [Tranexamic acid, reference compound] |  |  | 3.2 | B (less than 5%)
